Experimental data published in US20210121383A1, “COMPOSITION FOR ANTI-AGING” (MORINAGA MILK INDUSTRY CO., LTD., priority 2018, published 2021).

Tested on: HepG2 cells derived from liver cancer
Assay: Test 2: quantitative evaluation of autophagy activity (CYTO-ID/Hoechst 33342 fluorescence, microplate reader)
Format: cell-based
Conditions: 100 μM compound 1 or compound 2, 24 hours (positive control 500 nM rapamycin, 16 hours), then 10 μM chloroquine 6 hours; 3 wells per group
Description: The active action of autophagy of the compound 1 or the compound 2 observed in Test 1 was quantitatively detected.
HepG2 cells derived from liver cancer in 2.5×10^4 cells were plated in a 96-well plate (manufactured by Falcon), and the culture was performed for 24 hours in DMEM containing 10% FBS under the conditions of 37° C. and a CO2 concentration of 5%. After that, the cells were cultured for 24 hours by using a medium for testing prepared in (1-1) of (1) in Test 1. Further, the culture was performed in a similar manner as in Test 1 also in the negative control and the positive control. […]
Into each well, 100 μL of an assay buffer attached to a kit (manufactured by Enzo Life Sciences, Inc.) was added, and the fluorescence intensity was measured by using a fluorescence microplate reader, SH-9000 (manufactured by CORONA ELECTRIC Co., Ltd.). The fluorescence derived from the fluorescent probe for autophagy detection was measured under the conditions of an excitation filter of 480 nm and a fluorescence filter of 530 nm. Further, the fluorescence derived from each staining reagent was measured under the conditions of an excitation filter of 340 nm and a fluorescence filter of 480 nm.
Results of the fluorescence intensity of the cells exposed to a compound 1 or a compound 2, which was measured by a fluorescence microplate reader, are shown in Table 1. […]

CO[C@H]1C[C@@H]2CC[C@@H](C)[C@@](O)(O2)C(=O)C(=O)N2CCCC[C@H]2C(=O)O[C@H]([C@H](C)C[C@@H]2CC[C@@H](O)[C@H](OC)C2)CC(=O)[C@H](C)/C=C(\C)[C@@H](O)[C@@H](OC)C(=O)[C@H](C)C[C@H](C)/C=C/C=C/C=C/1C [Positive control, rapamycin]
Autophagy induction (CYTO-ID fluorescence intensity/Hoechst 33342 fluorescence intensity): 93
